Results: patent US8071768B2, “Alkylquinoline and alkylquinazoline kinase modulators” (Janssen Pharmaceutica, N.V., priority 2005, dated 2011)

Experiments:
TrkB = molecular target: T1, TrkB (Homo sapiens, UniProt Q16620); assay: Trk B Fluorescence Polarization Kinase Assay; type: biochemical; conditions: uncertainty ±10%
T1 construct: purchased Upstate 14-507M
Method in brief: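 The TrkB kinase reaction (50 nM enzyme, 20 ug/mL poly Glu4Tyr, 150 uM ATP, 5 mM MgCl2, 1% DMSO) ran 30 minutes at room temperature and was stopped with EDTA. Phosphorylation was detected by fluorescence-polarization displacement of a fluorescein phosphopeptide from an anti-phosphotyrosine antibody. IC50 came from a variable-slope sigmoidal fit of triplicates.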

[1] = molecular target: T2, FLT ligand-induced wild-type FLT3 phosphorylation (Homo sapiens, UniProt P36888); assay: Cell-Based FLT3 Receptor Elisa (Baf3 FLT3 cells); conditions: uncertainty ±20%
T2 construct: host or cells: Baf3 (murine B cell lymphoma line)
T2 sequence (P36888 27-993): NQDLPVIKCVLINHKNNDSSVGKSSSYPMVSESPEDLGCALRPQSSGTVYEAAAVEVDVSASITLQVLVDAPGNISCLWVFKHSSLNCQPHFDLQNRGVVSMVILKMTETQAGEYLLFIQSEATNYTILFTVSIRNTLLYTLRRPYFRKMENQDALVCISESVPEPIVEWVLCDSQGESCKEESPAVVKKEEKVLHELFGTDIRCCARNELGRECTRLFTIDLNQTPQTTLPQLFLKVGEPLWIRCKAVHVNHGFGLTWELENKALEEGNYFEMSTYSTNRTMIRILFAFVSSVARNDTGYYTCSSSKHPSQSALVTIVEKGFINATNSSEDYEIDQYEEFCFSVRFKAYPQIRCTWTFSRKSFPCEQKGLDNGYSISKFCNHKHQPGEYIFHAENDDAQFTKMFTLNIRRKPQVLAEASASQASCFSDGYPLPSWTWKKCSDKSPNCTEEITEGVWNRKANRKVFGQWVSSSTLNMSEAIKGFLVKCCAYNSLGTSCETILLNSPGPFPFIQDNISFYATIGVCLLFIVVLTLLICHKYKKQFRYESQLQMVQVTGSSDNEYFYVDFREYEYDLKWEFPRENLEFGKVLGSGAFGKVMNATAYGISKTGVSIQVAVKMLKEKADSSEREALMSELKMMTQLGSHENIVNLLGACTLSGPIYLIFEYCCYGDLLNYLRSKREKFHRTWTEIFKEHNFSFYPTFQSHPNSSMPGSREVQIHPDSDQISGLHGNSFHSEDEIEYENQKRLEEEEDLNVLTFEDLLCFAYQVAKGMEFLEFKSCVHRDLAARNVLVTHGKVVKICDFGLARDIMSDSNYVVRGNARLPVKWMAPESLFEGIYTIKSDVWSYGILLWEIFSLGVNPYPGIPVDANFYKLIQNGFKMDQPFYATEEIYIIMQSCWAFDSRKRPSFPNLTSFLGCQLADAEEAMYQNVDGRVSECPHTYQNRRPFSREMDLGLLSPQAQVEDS
Experimental: Cell-Based FLT3 Receptor Elisa
Specific cellular inhibition of FLT ligand-induced wild-type FLT3 phosphorylation was measured in the following manner: Baf3 FLT3 cells overexpressing the FLT3 receptor were obtained from Dr. Michael Heinrich (Oregon Health and Sciences University). The Baf3 FLT3 cell lines were created by stable transfection of parental Baf3 cells (a murine B cell lymphoma line dependent on the cytokine IL-3 for growth) with wild-type FLT3. Cells were selected for their ability to grow in the absence of IL-3 and in the presence of FLT3 ligand.
Baf3 cells were maintained in RPMI 1640 with 10% FBS, penn/strep and 10 ng/ml FLT ligand at 37° C., 5% CO2. To measure direct inhibition of the wild-type FLT3 receptor activity and phosphorylation a sandwich ELISA method was developed similar to those developed for other RTKs (3,4). 200 μL of Baf3FLT3 cells (1×10^6/mL) were plated in 96 well dishes in RPMI 1640 with 0.5% serum and 0.01 ng/mL IL-3 for 16 hours prior to 1 hour compound or DMSO vehicle incubation. Cells were treated with 100 ng/mL Flt ligand (R&D Systems Cat# 308-FK) for 10 min. at 37° C. Cells were pelleted, washed and lysed in 100 ul lysis buffer (50 mM Hepes, 150 mM NaCl, 10% Glycerol, 1% Triton-X-100, 10 mM NaF, 1 mM EDTA, 1.5 mM MgCl2, 10 mM NaPyrophosphate) supplemented with phosphatase (Sigma Cat# P2850) and protease inhibitors (Sigma Cat #P8340). […]

[2] = molecular target: T3, isolated kinase domain of the human c-kit receptor (Homo sapiens, UniProt P10721); assay: c-Kit Fluorescence Polarization Kinase Assay; type: biochemical; conditions: uncertainty ±10%; read-out: ckit IC50
T3 construct: isolated kinase domain of the human c-kit receptor; purchased ProQinase lot SP005
Experimental: c-Kit Fluorescence Polarization Kinase Assay
The compounds of the present invention are also specific inhibitors of c-Kit. Selection of preferred compounds of Formula I for use as c-Kit inhibitors was performed in the following manner using an in vitro kinase assay to measure inhibition of the isolated kinase domain of the human c-kit receptor in a fluorescence polarization (FP) protocol. The c-kit assay utilized the fluorescein-labeled phosphopeptide and the anti-phosphotyrosine antibody included in the Panvera Phospho-Tyrosine Kinase Kit (Green) supplied by Invitrogen. When c-kit phosphorylated the poly Glu4Tyr, the fluorescein-labeled phosphopeptide was displaced from the anti-phosphotyrosine antibody by the phosphorylated poly Glu4Tyr, thus decreasing the FP value. The c-kit kinase reaction was incubated at room temperature for 45 minutes under the following conditions: 1 nM c-kit (ProQinase, lot SP005), 100 ug/mL poly Glu4Tyr, 50 uM ATP, 5 mM MgCl2, 1 mM DTT, 0.01% Tween-20, 1% DMSO or compound in […], pH 7.5. The kinase reaction was stopped with the addition of EDTA. The fluorescein-labeled phosphopeptide and the anti-phosphotyrosine antibody were added and incubated for 30 minutes at room temperature and fluorescence polarization was read. Data points were an average of triplicate samples. Inhibition and IC50 data analysis were done with GraphPad Prism using a non-linear regression fit with a multiparamater, sigmoidal dose-response (variable slope) equation.

MV4-11 tumor xenografts = assay: nude mouse MV4-11 human tumor xenograft regression model; type: in vivo, nude mice; conditions: for decrease of mean tumor volume compared to vehicle-treated group: Day 11; for reduction of final tumor weight compared to vehicle-treated group: eleven days oral dosing
Experimental: Female athymic nude mice (CD-1, nu/nu, 9-10 weeks old) were obtained from Charles River Laboratories (Wilmington, Mass.) and were maintained according to NIH standards. All mice were group housed (5 mice/cage) under clean-room conditions in sterile micro-isolator cages on a 12-hour light/dark cycle in a room maintained at 21-22° C. and 40-50% humidity. Mice were fed irradiated standard rodent diet and water ad libitum. All animals were housed in a Laboratory Animal Medicine facility that is fully accredited by the American Association for Assessment and Accreditation of Laboratory Animal Care (AAALAC). All procedures involving animals were conducted in compliance with the NIH Guide for the Care and Use of Laboratory Animals and all protocols were approved by an Internal Animal Care and Use Committee (IACUC).
The human leukemic MV4-11 cell line was obtained from the American Type Culture Collection (ATCC Number: CRL-9591) and propagated in RPMI medium containing 10% FBS (fetal bovine serum) and 5 ng/mL GM-CSF (R&D Systems). MV4-11 cells are derived from a patient with childhood acute myelomonocytic leukemia with an 11q23 translocation resulting in a MLL gene rearrangement and containing an FLT3-ITD mutation (AML subtype M4)(1,2). MV4-11 cells express constitutively active phosphorylated FLT3 receptor as a result of a naturally occurring FLT3/ITD mutation. Strong anti-tumor activity against MV4-11 tumor growth in the nude mouse tumor xenograft model is anticipated to be a desirable quality of the invention.
(§1) Female athymic nude mice weighing no less than 20-21 grams were inoculated subcutaneously in the left inguinal region of the thigh with 5×10^6 tumor cells in a delivery volume of 0.2 mL. For regression studies, the tumors were allowed to grow to a pre-determined size prior to initiation of dosing.
(See FIG. 2). […] Percent Inhibition was calculated versus the mean tumor weight in the vehicle-treated control group.

FLT3 = FLT3 phosphorylation in MV4-11 tumors from treated mice (immunoblot); type: in vivo, nude mice; conditions: single dose 100 mg/kg po, tumors harvested 2 hours later
Experimental: To establish further that compounds of the present invention reached the expected target in tumor tissue, the level of FLT3 phosphorylation in tumor tissue obtained from vehicle- and compound-treated mice was measured. Results for Compound 73 and Compound 74 are shown in FIG. 3 and FIG. 4, respectively. For this pharmacodynamic study, a sub-set of 10 mice from the vehicle-treated control group were randomized into two groups of 5 mice each and then treated with another dose of vehicle or compound (100 mg/kg, po). Tumors were harvested 2 hours later and snap frozen for assessment of FLT3 phosphorylation by immunobloting.
Harvested tumors were processed for immunoblot analysis of FLT3 phosphorylation in the following manner: 100 mg of tumor tissue was dounce homogenized in lysis buffer (50 mM Hepes, 150 mM NaCl, 10% Glycerol, 1% Triton-X-100, 10 mM NaF, 1 mM EDTA, 1.5 mM MgCl2, 10 mM NaPyrophosphate) supplemented with phosphatase (Sigma Cat#P2850) and protease inhibitors (Sigma Cat #P8340). Insoluble debris was removed by centrifugation at 1000×g for 5 minutes at 4° C. Cleared lysates ([…] of total potein at 10 mg/ml in lysis buffer) were incubated with 10 μg of agarose conjugated anti-FLT3 antibody, clone C-20 (Santa Cruz cat # sc-479ac), for 2 hours at 4° C. with gentle agitation. […]

[3] = Tolerability in the MV4-11 xenograft study (body weight, overt clinical signs); type: in vivo, nude mice; conditions: 11-day treatment, doses up to 200 mg/kg/day
Experimental: as §1

T1 sequence (Q16620 32-822): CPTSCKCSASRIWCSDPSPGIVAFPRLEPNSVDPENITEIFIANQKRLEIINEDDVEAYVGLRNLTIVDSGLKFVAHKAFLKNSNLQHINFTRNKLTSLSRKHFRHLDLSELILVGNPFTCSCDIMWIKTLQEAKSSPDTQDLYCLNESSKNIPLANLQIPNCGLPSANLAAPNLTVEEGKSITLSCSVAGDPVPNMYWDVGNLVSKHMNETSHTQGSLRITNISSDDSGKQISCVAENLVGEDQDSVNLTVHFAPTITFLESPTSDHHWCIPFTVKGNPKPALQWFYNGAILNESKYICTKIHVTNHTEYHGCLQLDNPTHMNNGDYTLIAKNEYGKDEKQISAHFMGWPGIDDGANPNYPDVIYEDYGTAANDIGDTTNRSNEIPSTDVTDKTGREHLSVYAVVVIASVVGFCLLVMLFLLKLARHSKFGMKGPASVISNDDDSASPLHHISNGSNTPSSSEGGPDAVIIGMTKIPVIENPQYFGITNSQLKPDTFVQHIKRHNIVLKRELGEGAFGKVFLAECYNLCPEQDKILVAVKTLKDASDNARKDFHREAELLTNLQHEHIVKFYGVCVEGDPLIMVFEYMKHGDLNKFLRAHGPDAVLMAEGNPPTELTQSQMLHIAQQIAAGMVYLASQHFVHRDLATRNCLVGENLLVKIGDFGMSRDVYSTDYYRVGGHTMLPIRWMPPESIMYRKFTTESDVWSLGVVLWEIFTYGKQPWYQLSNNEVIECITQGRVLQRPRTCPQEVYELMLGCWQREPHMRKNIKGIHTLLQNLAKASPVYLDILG
T3 sequence (P10721 589-937 limits assumed): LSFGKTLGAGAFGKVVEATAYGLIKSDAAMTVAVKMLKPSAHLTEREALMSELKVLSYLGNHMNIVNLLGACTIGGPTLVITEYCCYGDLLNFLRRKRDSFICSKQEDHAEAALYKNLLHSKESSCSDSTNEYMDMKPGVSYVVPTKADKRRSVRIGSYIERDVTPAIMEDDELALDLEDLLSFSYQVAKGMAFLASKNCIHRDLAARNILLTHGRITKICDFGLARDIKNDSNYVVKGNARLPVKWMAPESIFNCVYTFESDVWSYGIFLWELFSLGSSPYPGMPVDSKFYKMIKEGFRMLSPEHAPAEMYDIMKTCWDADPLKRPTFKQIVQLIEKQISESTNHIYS

Structure (SMILES)	IC50 (TrkB) [µM]	IC50 [1] [µM]	IC50 [2] [µM]	final tumors in some mice (MV4-11 tumor xenografts; high dose)	level of FLT3 phosphorylation in MV4-11 tumors compared to vehicle-treated mice (FLT3)	adverse effects on body weight [3]	overt toxicity [3]	decrease of mean tumor volume compared to vehicle-treated group (MV4-11 tumor xenografts; 10 mg/kg b.i.d. oral) [%]	reduction of final tumor weight compared to vehicle-treated group (MV4-11 tumor xenografts; 10 mg/kg) [%]	decrease of mean tumor volume compared to vehicle-treated group (MV4-11 tumor xenografts; 30 mg/kg b.i.d. oral) [%]	reduction of final tumor weight compared to vehicle-treated group (MV4-11 tumor xenografts; 30 mg/kg) [%]	tumor regression: decrease versus starting mean tumor volume on Day 1 (MV4-11 tumor xenografts; 100 mg/kg b.i.d. oral) [%]	decrease of mean tumor volume compared to vehicle-treated group (MV4-11 tumor xenografts; 100 mg/kg b.i.d. oral) [%]	reduction of final tumor weight compared to vehicle-treated group (MV4-11 tumor xenografts; 100 mg/kg) [%]
COc1cc2ncnc(C3CCN(C(=O)Nc4ccc(N5CCN(C)CC5)cc4)CC3)c2cc1OC [Compound 20, 4-(6,7-Dimethoxy-quinazolin-4-yl)-piperidine-1-carboxylic acid [4-(4-methyl-piperazin-1-yl-phenyl)]-amide]	39.9	> 3	–	–	–	–	–	–	–	–	–	–	–	–
COc1cc2ncnc(C3CCN(C(=O)Nc4ccc(C(C)O)cc4)CC3)c2cc1OC (stereo not shown) [Compound 55, 4-(6,7-Dimethoxy-quinazolin-4-yl)-piperidine-1-carboxylic acid [4-(1-hydroxy-ethyl)-phenyl]-amide]	39.1	1	–	–	–	–	–	–	–	–	–	–	–	–
CN1CCN(CCCOc2ccc3c(C4CCN(C(=O)Nc5ccc(N6CCOCC6)cc5)CC4)ncnc3c2)CC1 [Compound 73, 4-{7-[3-(4-Methyl-piperazin-1-yl)-propoxy]-quinazolin-4-yl}-piperidine-1-carboxylic acid (4-morpholin-4-yl-phenyl)-amide]	> 20	–	0.04	regressed to non-palpable, non-detectable tumors	biologically significant reduction	no significant adverse effects on body weight	No overt toxicity	–	–	–	–	–	–	–
O=C1CCCN1CCOc1ccc2c(C3CCN(C(=O)Nc4ccc(N5CCCC5)cc4)CC3)ncnc2c1 [Compound 74, 4-{7-[2-(2-Oxo-pyrrolidin-1-yl)-ethoxy]-quinazolin-4-yl}-piperidine-1-carboxylic acid (4-pyrrolidin-1-yl-phenyl)-amide]	3.3	–	0.013	–	biologically significant reduction	no significant adverse effects on body weight	No overt toxicity	22	12	54	43	79	96	91
